pIC50: −log10 of the molar value.
How the values were obtained:
HCT116 (colon) = assay: In vitro cytotoxic activity MTT assay, HCT116; type: cell-based; settings: Homo sapiens, HCT-116; cells exposed for 96 hours; 50% inhibition of cell proliferation; read-out: Cytotoxicity activity IC50, HCT116 (colon)
Method: (§1) Compounds 1-16 were screened for their in vitro cytotoxic activity utilizing a 3-(4,5-dimethyl-thiazol-2-yl)-2,5-diphenyltetrazolium bromide (MTT) assay against selected cancer human cell lines consisting of PC3 (prostate), HCT116 (colon), A375 (melanoma), H1299 (lung), MIAPaCa-2 (pancreas), HL60 (leukemia), MCF7 (breast), MDA-MB-231 (breast) (T. Mosmann, J. Immunol. Meth., 1983, 65, 55-63). The cells were cultured at 37° C. in RMPI1640 medium supplemented with 10% fetal bovine serum, 50 IU/mL penicillin, and 50 μg/mL streptomycin in a 5% CO2 incubator. All cells were sub-cultured 3 times/week by trypsinisation. Viable cells were seeded and allowed to adhere for 12 h before a test drug was added in 96-well plates at an initial density of 1.0×10^5 cells/mL. Tumor cell lines were separately exposed to various concentrations of the tested compounds followed by incubation at a temperature of 37° C. during 96 hours inside a medium of fresh RMPI 1640. Cells were subsequently incubated at 37° C. using MTT at 0.5 mg/mL during 4 hours. After removal of supernatant, formazan crystals were dissolved in isopropanol and the optical density was measured at 570 nm. CX-4945 was used as a positive control.

MDA-MB-231 (breast) = assay: In vitro cytotoxic activity MTT assay, MDA-MB-231; type: cell-based; settings: Homo sapiens, cells exposed for 96 hours, 50% inhibition of cell proliferation, read-out: Cytotoxicity activity IC50, MDA-MB-231 (breast)
Method: as §1

HL60 (leukemia) = assay: In vitro cytotoxic activity MTT assay, HL60; type: cell-based; settings: Homo sapiens, HL-60; cells exposed for 96 hours; 50% inhibition of cell proliferation; read-out: Cytotoxicity activity IC50, HL60 (leukemia)
Method: as §1

PC3 (prostate) = assay: In vitro cytotoxic activity MTT assay, PC3; type: cell-based; settings: Homo sapiens; cells exposed for 96 hours; 50% inhibition of cell proliferation; read-out: Cytotoxicity activity IC50, PC3 (prostate)
Method: as §1

MIAPaCa-2 (pancreas) = assay: In vitro cytotoxic activity MTT assay, MIAPaCa-2; type: cell-based; settings: Homo sapiens, MIA PaCa-2; cells exposed for 96 hours; 50% inhibition of cell proliferation; read-out: Cytotoxicity activity IC50, MIAPaCa-2 (pancreas)
Method: as §1

A375 (melanoma) = assay: In vitro cytotoxic activity MTT assay, A375; type: cell-based; settings: Homo sapiens, A-375; cells exposed for 96 hours; 50% inhibition of cell proliferation; read-out: Cytotoxicity activity IC50, A375 (melanoma)
Method: as §1

H1299 (lung) = assay: In vitro cytotoxic activity MTT assay, H1299; type: cell-based; settings: Homo sapiens, NCI-H1299; cells exposed for 96 hours; 50% inhibition of cell proliferation; read-out: Cytotoxicity activity IC50, H1299 (lung)
Method: as §1

MCF7 (breast) = assay: In vitro cytotoxic activity MTT assay, MCF7; type: cell-based; settings: Homo sapiens, cells exposed for 96 hours, 50% inhibition of cell proliferation, read-out: Cytotoxicity activity IC50, MCF7 (breast)
Method: as §1

recombinant human CK2 = molecular target: T1, recombinant human CK2 (Homo sapiens, UniProt P68400); assay: CK2 Kinase Assay (33P-ATP, substrate peptide RRRDDDSDDD); type: biochemical; settings: final ATP concentration 15 μM; 10 min at 30° C.; eight concentrations; read-out: protein kinase CK2 IC50
T1 construct: purchased Millipore
Method: CK2 Kinase Assay was conducted using the protocol as described in Pierre F. et al; J. Med. Chem. 2011, 54, 635-654. The tested compounds in aqueous solution were added at a volume of 10 μL to a reaction mixture comprising 10 μL of assay dilution buffer (ADB; 20 mM MOPS, pH 7.2, 25 mM β-glycerol phosphate, 5 mM EGTA, 1 mM sodium orthovanadate, and 1 mM dithiothreitol), 10 μL of substrate peptide (RRRDDDSDDD, dissolved in ADB at a concentration of 1 mM), 10 μL of recombinant human CK2 (RRββ-holoenzyme, 25 ng dissolved in ADB; Millipore). Reactions were initiated by the addition of 10 μL of ATP solution (90%75 mMMgCl2, 75 µM ATP (final ATP concentration: 15 μM) dissolved in ADB; 10% [γ-33P] ATP (stock 1 mCi/100 μL; 3000 Ci/mmol (Perkin-Elmer) and maintained for 10 min at 30° C. The reactions were quenched with 100 μL of 0.75% phosphoric acid and then transferred to and filtered through a phosphor cellulose filter plate (Millipore). After washing each well five times with 0.75% phosphoric acid, the plate was dried under vacuum for 5 min and, following the addition of 15 μL of scintillation fluid to each well, the residual radioactivity was measured using a Wallac luminescence counter. The IC50 values were derived from eight concentrations of test inhibitors.

T1 sequence (P68400 whole entry): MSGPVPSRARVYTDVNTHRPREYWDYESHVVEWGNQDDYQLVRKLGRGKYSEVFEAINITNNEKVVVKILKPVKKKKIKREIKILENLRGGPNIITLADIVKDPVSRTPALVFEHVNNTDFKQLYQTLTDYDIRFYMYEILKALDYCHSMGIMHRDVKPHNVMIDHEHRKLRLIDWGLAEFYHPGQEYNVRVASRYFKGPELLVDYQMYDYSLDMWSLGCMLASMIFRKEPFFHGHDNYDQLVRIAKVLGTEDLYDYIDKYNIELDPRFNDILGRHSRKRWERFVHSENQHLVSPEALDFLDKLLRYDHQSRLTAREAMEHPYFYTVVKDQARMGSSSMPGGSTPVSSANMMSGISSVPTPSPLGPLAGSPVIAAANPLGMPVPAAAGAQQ
T1 sequence (P67870 whole entry partner): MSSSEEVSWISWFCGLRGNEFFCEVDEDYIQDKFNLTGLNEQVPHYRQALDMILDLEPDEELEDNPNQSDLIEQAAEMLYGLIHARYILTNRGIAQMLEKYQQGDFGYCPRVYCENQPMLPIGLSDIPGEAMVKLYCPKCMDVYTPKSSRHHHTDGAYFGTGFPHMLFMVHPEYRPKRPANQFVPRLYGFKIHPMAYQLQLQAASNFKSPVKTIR

pIC50 (recombinant human CK2): 4.00
SMILES: Clc1cccc(Nc2c3cnccc3nc3c2nn2ccncc32)c1 [Compound (1), N-(3-chlorophenyl)pyrazino[1′,2′:1,5]pyrazolo[4,3-b][1,6]naphthyridin-7-amine]
pIC50 (HCT116 (colon)): 5.77
pIC50 (MDA-MB-231 (breast)): 5.28
pIC50 (HL60 (leukemia)): 5.54
pIC50 (PC3 (prostate)): 5.85
pIC50 (MIAPaCa-2 (pancreas)): 5.96
pIC50 (A375 (melanoma)): 5.44
pIC50 (H1299 (lung)): 5.60
pIC50 (MCF7 (breast)): 5.21

From patent US12129259B1, “Pyrazino[1′,2′:1,5]pyrazolo[4,3-b][1,6]naphthyridines compounds as CK2 inhibitors” (KING FAISAL UNIVERSITY, priority 2023, dated 2024)
